{"source": "patent US8017786B2", "about": "“Substituted β-phenyl-α-hydroxy-propanoic acid, synthesis method and use thereof” (Northwest University, priority 2006, dated 2011)", "key": {"[1]": {"test_system": "PPARγ", "assay": "Immunohistochemistry protein expression in I/R myocardial tissue: PPARγ", "type": "in vivo, rat", "conditions": "5 days, ischemia 30 min, reperfusion 2 h", "description": "52 SD rats having a body weight of 220±20 g were randomly divided into model control group, salviannic acid injection group (in 1 mL/kg), and group of bornyl β-(3,4-dihydroxylphenyl)-α-hydroxylpropionate ester at a small, middle and large dose (ip 5, 15, 35 mg/kg). The rats of the normal group and the model control group were ip administered with equal-volume of physiologic saline. The rats of all groups were administered for consecutive 5 days. When the rats were administered for the last time, they were simultaneously anesthetized with 1.5% pentobarbital sodium (ip 45 mg/kg), then a catheter was inserted into the right carotid artery, and connected via a transducer to an eight-channeled physiological recorder. Tracheal cannula was performed, and the ventilation rate was maintained at 60 times/min. The chest was opened, a 6/0 suture was used to form a loop at a site 1˜2 mm from the root of the anterior descending coronary artery, and a plastic pipe was introduced through the loop, then the loop was tightened up. The change of electrocardiogram was observed. An increase or decrease of ST indicated the success of ligation. The color of the myocardial tissue below the ligation suture became darker. 30 minutes later, the plastic pipe was pulled out to allow coronary artery blood flowing again and cause hyperemia of local tissue during reperfusion. For the groups subjected to ischemia for 30 min and reperfusion for 30 min, the myocardial infarction areas were recorded before the test, after ischemia for 1 min and 30 min, and after reperfusion for 30 min; for the groups subjected to ischemia for 30 min and reperfusion for 2 h, cardiac tissue samples were taken and fixed using 10% formalin, embedded with paraffin, serially sliced into sections with a thickness of 4 μm, and separately subjected to immunohistochemistry tests; the rats of the sham operation group were subjected only to the introduction of suture but their coronary arteries were not ligated.\nStandard immunohistochemistry ABC and SP methods were employed for staining. Bax: anti-rabbit polyclonal antibody (Santa CruzBio. Inc.) at a dilution of 1:200; […]: anti-rabbit polyclonal antibody (TBD Tianjin Biotechnological Center). At a dilution of […]; caspase-3: anti-rabbit polyclonal antibody (Normarkers Fromont, Calif.), at a dilution of 1:200; MMP-2: anti-murine monoclonal antibody (NormarkersFromont, Calif.) at a dilution of 1:200; PPARγ: anti-caprine polyclonal antibody (Santa Cruz Bio. Inc.), at a dilution of 1:500. The specific procedures were performed in accordance with the instructions of the ABC and SP kits, DAB was used for color development, and neutral resin was used for mounting. PBS was used instead of the first antibody as a negative control. […]"}, "[2]": {"test_system": "superoxide dismutase (SOD)", "assay": "Serum SOD activity in rats with myocardial ischemia", "type": "in vivo, rat", "conditions": "for SOD: serum, 24 h after ligation", "description": "At 0.5 h after the rats of these groups were administered intragastrically, the standard II lead electrocardiogram (before modeling) was recorded, and the height of ST-T segment was measured. The rats of sham operation group were then subjected to coronary artery braid without ligation, and the rats of other groups were subjected to coronary artery ligation in accordance with the following method to establish cute myocardial ischemia models. The rats were subjected to etherization, fixed at supine position, and their normal electrocardiograms (before modeling) were recorded. The skin of left thorax was incised under aseptic conditions, the 4th intercostal muscles were isolated in blunt way, the heart was extruded by light pressure to the right thorax, the left anterior descending coronary artery was ligated at a position 2˜3 mm departing from the left coronary artery origin and between the pulmonary conus and the left auricle of heart, then the heart was sent back to thorax cavity immediately and sutured the incision. Penicillin was smeared topically for the prevention of infections. After operation, the electrocardiogram of postischemia was recorded immediately (at 0 min after modeling), and the height of ST-T segment was measured."}}}
{"compound": "CC1(C)C2CCC1(C)C(OC(=O)C(O)Cc1ccc(O)c(O)c1)C2", "note": "(stereo not drawn) [bornyl salvianate ester, bornyl β-(3,4-dihydroxylphenyl)-α-hydroxylpropionate ester]", "values": [{"measurement": "PPARγ protein expression, OD value", "setting": "[1]; 5 mg/kg ip", "value": "0.16 ± 0.05"}, {"measurement": "PPARγ protein expression, OD value", "setting": "[1]; 15 mg/kg ip", "value": "0.18 ± 0.06"}, {"measurement": "PPARγ protein expression, OD value", "setting": "[1]; 35 mg/kg ip", "value": "0.18 ± 0.10"}, {"measurement": "SOD", "setting": "[2]; 10 mg/kg intragastric", "value": "117.66 ± 31.97", "unit": "U/mL"}, {"measurement": "SOD", "setting": "[2]; 20 mg/kg intragastric", "value": "111.32 ± 20.36", "unit": "U/mL"}, {"measurement": "SOD", "setting": "[2]; 40 mg/kg intragastric", "value": "119.63 ± 23.53", "unit": "U/mL"}, {"measurement": "superoxide dismutase (SOD) (in words)", "setting": "[2]; especially in the large dose group", "value": "increased"}]}
